Source: patent publication US20110144376A1, “DERMATOLOGICAL AGENT” (SHOWA DENKO K.K., priority 2008, published 2011)

Key:
[1] = tested on: three dimensional human skin model MEL-300 (normal human skin keratinocytes containing normal human epidermal melanocytes); test: Inhibitory effects for melanocyte dendrite formation (three dimensional human skin model); assay type: cell-based; conditions: 0.1 ml of a 30 mmol/l solution, MEL-300 cups, 7 days of incubation, vs 0.2% ethanol control, Scheffe, significance level 5%, n=3 (FIG. 1)
Method: (§1) Melanin formation inhibitory effects of the compounds 4 and 5 shown in Table 1 were evaluated using three dimensional human skin model MEL-300 (normal human skin keratinocytes containing normal human epidermal melanocytes). The MEL-300 skin model cups were transferred to a 6-well plate, each well containing 0.9 ml of EPI-100-LLMM maintenance medium, and were pre-incubated at 37° C. and 5% CO2 for 1 hour.
(§2) The maintenance medium was suction removed, and 5 ml of the maintenance medium was newly added. Thereafter, 0.1 ml of a 30 mmol/l solution of the compound 4 or 5 was added to the MEL-300 skin model cups, and the resultant were incubated. The controls were given 0.1 ml of a 0.2% ethanol solution.
The maintenance medium and the test substance were replaced every two days, and the incubation was performed for 7 days. After the 7 days of incubation, the cells inside the three dimensional human skin model cup were photographed, and the proportion (%) of the area of melanocytes was calculated by image analysis. Significant difference was tested by a post-hoc test (Scheffe method). The significance level was 5%. […] In this experiment, n=3.

[2] = tested on: three dimensional human skin model MEL-300 (normal human skin keratinocytes containing normal human epidermal melanocytes); test: Melanin synthesis inhibitory test (three dimensional human skin model); assay type: cell-based; conditions: 0.1 ml of a 30 mmol/l solution, MEL-300 cups, 14 days of incubation, vs 0.2% ethanol control, Scheffe, significance level 1%, n=3 (FIG. 2)
Method: as §1, with “4 or” for “4 and”
as §2, with “solution. The positive controls were given 0.1 ml of a 30 mmol/l kojic acid solution.” for “solution.”
The maintenance medium and the test substance were replaced every two days, and the incubation was performed for 14 days. […]
After the reaction, the reaction liquid was sufficiently stirred and the incubated skin piece was completely crushed. […] The supernatant was analyzed to determine the absorbance at 405 nm. A linear calibration curve was prepared based on the absorbances of melanin solutions of known concentrations that had been treated similarly. The melanin contents in the incubated skin pieces were thus determined. […]

[3] = tested on: C3H mice; test: Accelerating effects for mouse body hair growth; assay type: in vivo; conditions: male C3H/HeN mice, shaved dorsal region, 0.1 ml of a 50 μmol/g ointment once a day, Day 18, vs coating stimulation only, Scheffe, significance level 5%, n=6 (FIG. 3)
Method: Male C3H/HeN that were seven weeks old in a telogen hair cycle were used.
The dorsal region of the mice was shaved with an electrical hair clipper (0.05 mm blades) and an electrical shaver. From the next day, 0.1 ml of a 50 μmol/g ointment of the compound 4 or 5 was coated on the shaved regions once a day using a bacteria spreader. The controls were given only coating stimulation with a bacteria spreader.
The dorsal region of the mice on Day 18 after the initiation of coating was photographed. The proportion of the area of the region where hair had regrown relative to the total area of the shaved region was calculated by image analysis. The value obtained thereby indicated the hair regrowth rate (%). Significant difference was tested by a post-hoc test (Scheffe method). The significance level was 5%.
In this experiment, n=6 for the test substances and n=7 for the controls.

[4] = background art statement; cited from earlier work

Row | SMILES | formation of melanocyte dendrites (proportion (%) of the area of melanocytes by image analysis) [1] | melanin production (melanin contents in the incubated skin pieces, absorbance at 405 nm) [2] | hair regrowth rate (%) [3] | solubility in water [4]
1 | COc1c(OC(=O)CN(C)C)c(C)c(CC=C(C)CCC=C(C)CCC=C(C)CCC=C(C)CCC=C(C)CCC=C(C)CCC=C(C)CCC=C(C)CCC=C(C)CCC=C(C)C)c(OC(=O)CN(C)C)c1OC.Cl [Compound 4, 2,3-dimethoxy-5-methyl-6-decaisoprenylbenzene 1,4-bis-N,N-dimethyl glycinate hydrochloride] | significantly inhibited | significantly decreased | significantly increased | 
2 | COc1c(O)c(CC=C(C)CCC=C(C)CCC=C(C)CCC=C(C)CCC=C(C)CCC=C(C)CCC=C(C)CCC=C(C)CCC=C(C)CCC=C(C)C)c(C)c(OC(=O)CN(C)C)c1OC.Cl [Compound 5, 2,3-dimethoxy-5-methyl-6-decaisoprenyl-1-hydroxybenzene 4-N,N-dimethyl glycinate hydrochloride] | significantly inhibited | significantly decreased | significantly increased | 
3 | COC1=C(OC)C(=O)C(CC=C(C)CCC=C(C)CCC=C(C)CCC=C(C)CCC=C(C)CCC=C(C)CCC=C(C)CCC=C(C)CCC=C(C)CCC=C(C)C)=C(C)C1=O [ubiquinone-10, 2,3-dimethoxy-5-methyl-6-decaisoprenyl-1,4-benzoquinone] |  |  |  | completely insoluble in water
